Molecules are shown by their SMILES. ≈ marks a conversion by molar mass, not a printed value.

This data set can be described thus: physchem. The settings on record: pH 7.4 buffer.

Consider `C=CCN(C(=O)NCc1cccc(C)c1)C1CCN(CCC(c2ccccc2)c2ccccc2)CC1`, for which the thermodynamic solubility (usually solubility found after equilibrating the solid with the medium) worked out at 9.1 µM (≈ 4.38 µg/mL).
To `C[C@H](Oc1cccc2ncnc(Nc3ccc(OCc4ccccn4)c(Cl)c3)c12)C(=O)N(C)C` belongs 2.9 µM (≈ 1.39 µg/mL); to `c1ccc2oc(-c3cncc(-c4cnn(C5CCNCC5)c4)c3)nc2c1`, 87.1 µM (≈ 30.1 µg/mL).
In the case of `Cc1ccccc1C(=O)Nc1ccccc1` it was 186 µM (≈ 39.3 µg/mL); in that of `COc1cc2ncnc(Nc3cccc(Cl)c3F)c2cc1CN(C)CC(N)=O`, 13.2 µM (≈ 5.33 µg/mL).
In the case of `O=C(O)c1cc2c(F)cccc2n1Cc1ccc(Cl)c(Cl)c1` it was 525 µM (≈ 177 µg/mL); in that of `COc1cc2c(Nc3ccc(Cc4ccccc4)cc3)c(C#N)cnc2cc1OCCCN1CCOCC1`, 0.6 µM (≈ 0.305 µg/mL); in that of `COc1cc2ncnc(Nc3cccc(Cl)c3F)c2cc1CN(C)C1(C(N)=O)CN(C(C)C)C1`, 25.7 µM (≈ 12.5 µg/mL).
For the compound `Cn1nc(C(C)(C)C)cc1C(=O)N[C@@H](Cc1cccc(Cl)c1)C(=O)NCC#N`, the solubility (thermodynamic) stood at 93.3 µM (≈ 37.5 µg/mL).
In the case of `COc1ccc(Cl)c(Nc2ncnc3cc(OCCN4CCOCC4)cc(OC(C)C)c23)n1` it was 26.9 µM (≈ 12.7 µg/mL); in that of `COC[C@H](C)Oc1cc(Oc2cccc(F)c2)cc(C(=O)Nc2ccc(C(=O)O)cn2)c1`, 1380 µM (≈ 608 µg/mL); in that of `CCn1c2ccccc2c2cc(NC(=O)c3cc(C)on3)ccc21`, 2.5 µM (≈ 0.798 µg/mL).
Consider `COc1cccc(NC(=O)Cn2cc(Oc3ncnc4cc(OC)c(OC)cc34)cn2)c1`, for which the solubility (thermodynamic) worked out at 2.9 µM (≈ 1.26 µg/mL).
To `CC(C)S(=O)(=O)C1(c2cc(N3CCOCC3)nc(-c3cccc4[nH]ccc34)n2)CC1` belongs 1.5 µM (≈ 0.64 µg/mL); to `COc1ccc(Cl)c(Nc2ncnc3cc(OCC4CCN(C)CC4)c(OC)cc23)c1` [AZM-475271], 324 µM (≈ 143 µg/mL).
In the case of `COc1ccc(Cn2c(CCc3c[nH]c4ccccc34)nnc2[C@@H](Cc2c[nH]c3ccccc23)NC(=O)C(C)(C)N)cc1` it was 182 µM (≈ 105 µg/mL).
To `NC(=O)c1ccc(I)c([N+](=O)[O-])c1` [INIPARIB] belongs 417 µM (≈ 122 µg/mL).
The compound `Clc1ccc(-c2cn3cccnc3n2)cc1` gave a thermodynamic solubility of 20 µM (≈ 4.59 µg/mL).
To `COc1cc(N2CCOCC2)ccc1Nc1ncc(Cl)c(-c2cnc3ccccn23)n1` belongs 16.2 µM (≈ 7.08 µg/mL).
In the case of `COc1cc2ncnc(Nc3cccc(Cl)c3F)c2cc1CN(C)C1(C(N)=O)CN(C)C1` it was 51.3 µM (≈ 23.5 µg/mL); in that of `C#CCN(Cc1cc2c(=O)[nH]c(C)nc2cc1C)c1ccc(C(=O)NCc2cccc([N+](=O)[O-])c2)c(F)c1`, 0.1 µM (≈ 0.0514 µg/mL).
Turning to `CC(C)Oc1cc(O[C@H](C)Cc2ccccc2)cc(C(=O)Nc2ccc(C(=O)O)cn2)c1`, the thermodynamic solubility amounted to 8.5 µM (≈ 3.69 µg/mL).
To `CN1CCC(Oc2cc(OCCF)cc3ncnc(Nc4c(Cl)ccc5c4OCO5)c23)CC1` belongs 759 µM (≈ 360 µg/mL); to `COc1ccc(N2CCN(C(=O)[C@@H]3CCCC[C@H]3C(=O)NCC#N)CC2)cc1`, 389 µM (≈ 150 µg/mL).
In the case of `CC1(c2c(C(=O)NC3C4CC5CC(C4)CC3C5)cnn2-c2ccc(C(=O)O)cc2)CC1` (centres undefined) it was 661 µM (≈ 277 µg/mL); in that of `O=S(=O)(NCc1ccccc1)c1cccc2nonc12`, 141 µM (≈ 40.9 µg/mL).
`CC(C)Cn1c2ccccc2c2cc(C(=O)O)ccc21` came in with a solubility (thermodynamic) of 219 µM (≈ 58.5 µg/mL).
In the case of `COc1ccc(Br)c(C=O)c1O` it was 468 µM (≈ 108 µg/mL); in that of `COc1cc2ncnc(Nc3ccc(F)c(Cl)c3)c2cc1CN1CCC[C@@H]1C(N)=O`, 5.1 µM (≈ 2.19 µg/mL).
In the case of `COCCOc1cc2nncc(Nc3cc(O)c(Cl)cc3F)c2cc1OC` it was 0.1 µM (≈ 0.0394 µg/mL); in that of `COCC(C)(C)Oc1cc(O[C@@H](C)Cc2ccccc2)cc(C(=O)Nc2ccc(C(=O)O)cn2)c1`, 190 µM (≈ 91.2 µg/mL); in that of `N#CC1(NC(=O)[C@@H]2CCCC[C@H]2C(=O)N2CCc3[nH]c4c(F)cccc4c3C2)CC1`, 479 µM (≈ 195 µg/mL).
To `CNC(=O)N1c2ccccc2C=Cc2ccccc21` belongs 380 µM (≈ 95.2 µg/mL).
As for `CC(C)Oc1cc(O[C@@H](C)Cc2ccccc2)cc(C(=O)Nc2ccc(C(=O)O)cn2)c1`, the thermodynamic solubility stood at 9.1 µM (≈ 3.95 µg/mL).
To `COc1cc2nccc(Oc3ccc(NC(=O)Nc4cc(C)on4)c(Cl)c3)c2cc1OC` [TIVOZANIB] belongs 9.3 µM (≈ 4.23 µg/mL); to `Oc1ncnc2c1nnn2Cc1ccccc1`, 209 µM (≈ 47.5 µg/mL); to `CNC(=O)[C@@H](NC(=O)[C@H](CC(C)C)[C@H](OCc1cccc2cccnc12)C(=O)NO)C(C)(C)C`, 1000 µM (≈ 473 µg/mL).
To `N#Cc1ccc(CN2CCN(c3ccc4nnc(C(F)(F)F)n4n3)CC2)cc1` belongs 11.5 µM (≈ 4.45 µg/mL).
In the case of `N#Cc1ccccc1COc1cc(OCCCN2CCCC2)ccc1C(=O)Nc1cccc(O)c1` it was 363 µM (≈ 171 µg/mL); in that of `COc1cc2c(Nc3c(Cl)ccc4c3OCO4)ncnc2cc1OCc1ccnc(C#N)c1`, 10.2 µM (≈ 4.71 µg/mL).
Turning to `CC(C)n1c2ccc(F)cc2c2cc(NC(=O)N3CCOCC3)ccc21`, the solubility (thermodynamic) stood at 34.7 µM (≈ 12.3 µg/mL).
`COc1ccc(/C=C\c2cc(OC)c(OC)c(OC)c2)cc1O` [COMBRETASTATIN A4] registered a solubility (thermodynamic) of 144 µM (≈ 45.7 µg/mL).
For the compound `O=C(Nc1ccccc1)N1CCN(c2ccccn2)CC1`, the solubility (thermodynamic) is 170 µM (≈ 47.9 µg/mL).
To `Cc1nc(-c2ccc(CN3CCC(N(C)C(=O)Cc4ccc(-n5cnnn5)cc4)CC3)cc2)no1` belongs 10.2 µM (≈ 4.82 µg/mL); to `O=S(=O)(c1ccc(N2CCC(c3ccc(Cl)cc3)=N2)cc1)N(CCO)CCO`, 2.2 µM (≈ 0.933 µg/mL).
In the case of `O=C(Nc1ccccc1C(F)(F)F)N1CCN(c2ccccn2)CC1`, the thermodynamic solubility amounted to 190 µM (≈ 66.7 µg/mL).
To `CN1CCC(c2cc(N3CCOCC3)nc(-c3cccc4[nH]ccc34)n2)(S(C)(=O)=O)CC1` belongs 21.4 µM (≈ 9.75 µg/mL).
`Cc1c(NC(=O)OC[C@@H]2COCCN2)cn2ncnc(Nc3ccc4c(cnn4Cc4cccc(F)c4)c3)c12` [AC-480] had a thermodynamic solubility of 1.7 µM (≈ 0.902 µg/mL).
To `CNS(=O)(=O)c1ccc(Nc2nccc(-c3cnc(C)n3C)n2)cc1` belongs 2.7 µM (≈ 0.968 µg/mL); to `COc1cc(N2CCN(C(C)=O)CC2)ccc1Nc1ncc(Cl)c(-c2cnc3c(F)cccn23)n1`, 2.8 µM (≈ 1.39 µg/mL); to `O=C(N[C@@H](Cc1ccccc1)C(=O)N1CCC(O)CC1)c1cc2cc(Cl)ccc2[nH]1`, 5.1 µM (≈ 2.17 µg/mL).
To `COc1cc2ncnc(Nc3ccc(F)c(Cl)c3)c2cc1OCCCN(C)C` belongs 1290 µM (≈ 522 µg/mL).
Take `COc1ccc(NC(=O)c2cccn(CC=C(C)C)c2=O)cc1`: the thermodynamic solubility was determined as 7.2 µM (≈ 2.25 µg/mL). Against the preceding compound, the solubility thermodynamic is about 180-fold lower.
In turn, `CO[C@]1(c2cc(F)cc(S(=O)(=O)c3ccc(/C(C)=N/O)cc3)c2)CCO[C@@H](C)C1` returned a thermodynamic solubility of 4.7 µM (≈ 1.98 µg/mL).
In the case of `N#Cc1cccnc1-c1ccc(C(=O)Nc2ccccc2N)cc1` it was 35.5 µM (≈ 11.2 µg/mL).
The compound `COc1cc2ncnc(Nc3ccc4c(ccn4Cc4ccccc4)c3)c2cc1OC` showed a thermodynamic solubility of 0.6 µM (≈ 0.246 µg/mL).
In the case of `COc1cc(N2CCN(C(C)=O)CC2)ccc1Nc1ncc(Cl)c(-c2cnc3ccc(F)cn23)n1` it was 1.3 µM (≈ 0.645 µg/mL).
The compound `COc1cccc(C(=O)N2CCC(C(=O)c3ccc(F)cc3)CC2)c1` returned a thermodynamic solubility of 58.9 µM (≈ 20.1 µg/mL).
In the case of `CCCN(CCO)CCCOc1ccc2c(Nc3cc(CC(=O)Nc4cccc(F)c4)[nH]n3)ncnc2c1` it was 112 µM (≈ 58.5 µg/mL); in that of `COC[C@H](C)Oc1cc(O[C@@H](C)Cc2ccccc2OC)cc(C(=O)Nc2ccc(C(=O)O)cn2)c1`, 589 µM (≈ 291 µg/mL); in that of `CCn1cc(NC(=O)Cc2ccc(Oc3ccnc4ccc(OC)cc34)cc2OC)cn1`, 7.1 µM (≈ 3.07 µg/mL).
On to `Cc1cc(C)cc(-c2[nH]c3sc(C(C)(C)C(=O)N4C5CCC4CC5)cc3c2CCN2CCC(C(=O)N3CCCC(O)C3)CC2)c1` (centres undefined), for which the solubility (thermodynamic) was 87.1 µM (≈ 55 µg/mL).
As for `COc1cc(CCc2cc(Nc3ccnc(NCc4cc(C)on4)n3)n[nH]2)cc(OC)c1`, the solubility (thermodynamic) is 4.3 µM (≈ 1.87 µg/mL). Against the preceding compound, the solubility thermodynamic is about 20-fold lower.
In the case of `COc1cc(OC2CNC2)ccc1Nc1ncc(Cl)c(-c2cnc3ccccn23)n1` it was 81.3 µM (≈ 34.4 µg/mL).
To `COc1cc(N2CCCN(C(C)=O)CC2)ccc1Nc1ncc(Cl)c(-c2cnc3ccccn23)n1` belongs 2.4 µM (≈ 1.18 µg/mL); to `Cc1ccc(SCc2cc(=O)n(C)[nH]2)cc1`, 1510 µM (≈ 355 µg/mL); to `C[C@@H](Cc1ccccc1)Oc1cc(OC2CCOCC2)cc(C(=O)Nc2ccc(C(=O)O)cn2)c1`, 105 µM (≈ 49.9 µg/mL).
To `CN(C(=O)c1ccco1)c1nnc(C23CC4CC(CC(C4)C2)C3)s1` belongs 3 µM (≈ 1.03 µg/mL).
`CC(C)(C)OC(=O)N1CCC(c2ncc(OCc3ccc(S(C)(=O)=O)cc3)cn2)CC1` yielded a thermodynamic solubility of 61.7 µM (≈ 27.6 µg/mL).
To `COc1cc2c(Nc3cc(CC(=O)Nc4cccc(F)c4F)[nH]n3)ncnc2cc1OCCCN1CCC[C@H]1CO` belongs 1000 µM (≈ 568 µg/mL); to `O=C(Nc1cccc(O)c1)c1ccc(OCCCN2CCCC2)cc1OC1CCCC1`, 58.9 µM (≈ 25 µg/mL).
In the case of `Nc1n[nH]c(S(=O)(=O)CCCc2ccccc2)n1` it was 575 µM (≈ 153 µg/mL).
To `C[C@@H]1CN(c2ncc(OCc3ccc(S(C)(=O)=O)cc3)cn2)[C@@H](C)CN1C(=O)OC(C)(C)C` belongs 0.9 µM (≈ 0.429 µg/mL).
For the compound `COc1cc2c(Nc3ccc(Br)cc3F)ncnc2cc1OC/C=C/CN1CCCC1`, the solubility (thermodynamic) turned out to be 240 µM (≈ 117 µg/mL). This solubility thermodynamic lies about 270-fold higher than the previous one.
Regarding `COc1cc(Oc2ccnc3cc(OC)c(OC)cc23)ccc1CC(=O)Nc1cn(C)nc1C`, the solubility (thermodynamic) was 8.9 µM (≈ 4.12 µg/mL).
In turn, `C[C@@H](Oc1cccc2ncnc(Nc3ccc4c(cnn4Cc4cccc(F)c4)c3)c12)C(=O)N(C)C` gave a solubility (thermodynamic) of 2.6 µM (≈ 1.26 µg/mL).
Turning to `CS(=O)(=O)Cc1cc(N2CCOCC2)nc(-c2cccc3[nH]ccc23)n1`, the solubility (thermodynamic) was determined as 12.9 µM (≈ 4.8 µg/mL).
To `O=C(c1ccc(F)cc1)C1CCN(C(=O)c2ccc(Cl)c(Cl)c2)CC1` belongs 0.8 µM (≈ 0.304 µg/mL); to `N=C(N)c1ccc2cc(C(=O)Nc3ccc4c(c3)OCO4)ccc2c1`, 44.7 µM (≈ 14.9 µg/mL).
`Cc1ccc2nc(-c3ccccc3)cc(O)c2c1`: the thermodynamic solubility came to 22.9 µM (≈ 5.39 µg/mL).
To `COc1ccc(I)c(Sc2nc3c(N)ncnc3n2CCNCC(C)(C)C)c1` belongs 4 µM (≈ 2.05 µg/mL); to `O=C1CSc2ccccc2N1`, 871 µM (≈ 144 µg/mL).
In the case of `Cc1c(Cc2ccc3ccccc3n2)c2cc(F)ccc2n1CC(=O)O` [TIMAPIPRANT] it was 112 µM (≈ 39.1 µg/mL); in that of `CS(=O)(=O)c1cccc(CNc2nc(Nc3ccc4c(c3)CCC(=O)N4)ncc2C(F)(F)F)c1`, 0.5 µM (≈ 0.246 µg/mL).
